The target of this experiment is RAF proto-oncogene serine/threonine-protein kinase (Homo sapiens, UniProt P04049). In words: Inhibition of RAF1 (unknown origin) incubated for 40 mins by scintillation counting analysis.

pIC50: −log10 of the molar value.

RAF proto-oncogene serine/threonine-protein kinase, sequence (P04049 whole entry): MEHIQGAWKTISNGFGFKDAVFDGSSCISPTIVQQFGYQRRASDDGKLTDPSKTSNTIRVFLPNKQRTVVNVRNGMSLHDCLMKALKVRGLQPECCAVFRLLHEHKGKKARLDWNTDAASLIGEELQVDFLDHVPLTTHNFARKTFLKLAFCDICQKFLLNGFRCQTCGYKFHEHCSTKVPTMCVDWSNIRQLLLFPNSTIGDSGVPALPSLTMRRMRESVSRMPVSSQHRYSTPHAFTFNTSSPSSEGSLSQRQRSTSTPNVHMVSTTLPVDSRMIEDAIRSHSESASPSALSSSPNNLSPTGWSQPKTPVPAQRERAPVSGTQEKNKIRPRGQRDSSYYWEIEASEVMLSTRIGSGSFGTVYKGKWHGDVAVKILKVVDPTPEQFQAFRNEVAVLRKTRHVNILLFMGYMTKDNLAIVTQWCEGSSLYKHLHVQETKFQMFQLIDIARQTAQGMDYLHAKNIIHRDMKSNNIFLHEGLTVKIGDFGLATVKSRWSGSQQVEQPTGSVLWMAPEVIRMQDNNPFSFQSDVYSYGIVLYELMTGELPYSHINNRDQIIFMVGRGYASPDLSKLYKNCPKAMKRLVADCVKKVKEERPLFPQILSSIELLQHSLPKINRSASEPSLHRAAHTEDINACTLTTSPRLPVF

With `O=C(NCCNc1nccc(-c2c(-c3cccc(O)c3)nc3sccn23)n1)c1ccccc1`, the pIC50 (in general, −log10 of the IC50, conventionally taken in molar units) was 8.09.

Values taken from BindingDB's records for PubMed 33316752 (University of Sharjah, 2021).
